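Following 48 hours of exposure in 96-well plates, responses at five concentrations were used to interpolate endpoints linearly. TGI is the concentration that stops growth completely.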
Experiments:
Test in all cases: growth of human tumour cells (NCI), 48 h
[1] = system: 786-0 renal
[2] = system: A498 renal
[3] = system: A549 NSCLC
[4] = system: ACHN renal
[5] = system: CAKI-1 renal
[6] = system: CCRF-CEM leukemia
[7] = system: COLO 205 colon
[8] = system: DLD-1 colon
[9] = system: DMS 114 small cell lung
[10] = system: DMS 273 small cell lung
[11] = system: EKVX NSCLC
[12] = system: HCC-2998 colon
[13] = system: HCT-116 colon
[14] = system: HCT-15 colon
[15] = system: HL-60(TB) leukemia
[16] = system: HOP-18 NSCLC
[17] = system: HOP-92 NSCLC
[18] = system: HT29 colon
[19] = system: IGROV1 ovarian
[20] = system: K-562 leukemia
[21] = system: KM12 colon
[22] = system: KM20L2 colon
[23] = system: LOX IMVI melanoma
[24] = system: LXFL 529 NSCLC
[25] = system: M14 melanoma
[26] = system: MALME-3M melanoma
[27] = system: MOLT-4 leukemia
[28] = system: NCI-H226 lung
[29] = system: NCI-H23 lung
[30] = system: NCI-H460 lung
[31] = system: NCI-H522 lung
[32] = system: OVCAR-3 ovarian
[33] = system: OVCAR-4 ovarian
[34] = system: OVCAR-5 ovarian
[35] = system: OVCAR-8 ovarian
[36] = system: SF-295 CNS
[37] = system: SF-539 CNS
[38] = system: SK-MEL-2 melanoma
[39] = system: SK-MEL-28 melanoma
[40] = system: SK-MEL-5 melanoma
[41] = system: SK-OV-3 ovarian
[42] = system: SN12C renal
[43] = system: SNB-19 CNS
[44] = system: SNB-75 CNS
[45] = system: SR leukemia
[46] = system: SW-620 colon
[47] = system: TK-10 renal
[48] = system: U251 CNS
[49] = system: UACC-257 melanoma
[50] = system: UACC-62 melanoma
[51] = system: UO-31 renal
[52] = system: RPMI-8226 leukemia
[53] = system: RXF 393 renal
[54] = system: SF-268 CNS
[55] = system: SNB-78 CNS
[56] = system: HOP-62 NSCLC
[57] = system: M19-MEL melanoma

## COC(=O)C1Cc2c([nH]c3ccccc23)C(c2ccccc2O)N1 (stereo not drawn)
[1]
  TGI: > 100 µM
[2]
  TGI: > 100 µM
[3]
  TGI: > 100 µM
[4]
  TGI: > 100 µM
[5]
  TGI: > 100 µM
[6]
  TGI: > 100 µM
[7]
  TGI: 93.8 µM
[8]
  TGI: > 100 µM
[9]
  TGI: > 100 µM
[10]
  TGI: > 100 µM
[11]
  TGI: > 100 µM
[12]
  TGI: > 100 µM
[13]
  TGI: > 100 µM
[14]
  TGI: > 100 µM
[15]
  TGI: 75.4 µM
[16]
  TGI: > 100 µM
[17]
  TGI: > 100 µM
[18]
  TGI: > 100 µM
[19]
  TGI: > 100 µM
[20]
  TGI: > 100 µM
[21]
  TGI: > 100 µM
[22]
  TGI: > 100 µM
[23]
  TGI: > 100 µM
[24]
  TGI: > 100 µM
[25]
  TGI: > 100 µM
[26]
  TGI: > 100 µM
[27]
  TGI: > 100 µM
[28]
  TGI: > 100 µM
[29]
  TGI: > 100 µM
[30]
  TGI: 47.1 µM
[31]
  TGI: > 100 µM
[32]
  TGI: > 100 µM
[33]
  TGI: > 100 µM
[34]
  TGI: > 100 µM
[35]
  TGI: > 100 µM
[36]
  TGI: > 100 µM
[37]
  TGI: > 100 µM
[38]
  TGI: > 100 µM
[39]
  TGI: > 100 µM
[40]
  TGI: > 100 µM
[41]
  TGI: > 100 µM
[42]
  TGI: > 100 µM
[43]
  TGI: > 100 µM
[44]
  TGI: > 100 µM
[45]
  TGI: > 100 µM
[46]
  TGI: > 100 µM
[47]
  TGI: > 100 µM
[48]
  TGI: > 100 µM
[49]
  TGI: > 100 µM
[50]
  TGI: > 100 µM
[51]
  TGI: 97.9 µM

## NC1C(O)C(O)C(CO)OC1n1cc(F)c(=O)[nH]c1=O (stereo not drawn)
[3]
  TGI: > 100 µM
[4]
  TGI: > 100 µM
[5]
  TGI: > 100 µM
[6]
  TGI: > 100 µM
[7]
  TGI: > 100 µM
[8]
  TGI: > 100 µM
[9]
  TGI: > 100 µM
[10]
  TGI: > 100 µM
[12]
  TGI: > 100 µM
[13]
  TGI: > 100 µM
[14]
  TGI: > 100 µM
[15]
  TGI: > 100 µM
[16]
  TGI: > 100 µM
[17]
  TGI: > 100 µM
[18]
  TGI: > 100 µM
[21]
  TGI: > 100 µM
[23]
  TGI: > 100 µM
[24]
  TGI: > 100 µM
[26]
  TGI: > 100 µM
[27]
  TGI: > 100 µM
[28]
  TGI: > 100 µM
[29]
  TGI: > 100 µM
[30]
  TGI: > 100 µM
[31]
  TGI: > 100 µM
[33]
  TGI: > 100 µM
[34]
  TGI: > 100 µM
[52]
  TGI: > 100 µM
[53]
  TGI: > 100 µM
[54]
  TGI: > 100 µM
[36]
  TGI: > 100 µM
[38]
  TGI: > 100 µM
[39]
  TGI: > 100 µM
[40]
  TGI: > 100 µM
[41]
  TGI: > 100 µM
[42]
  TGI: > 100 µM
[43]
  TGI: > 100 µM
[44]
  TGI: > 100 µM
[55]
  TGI: > 100 µM
[45]
  TGI: > 100 µM
[46]
  TGI: > 100 µM
[47]
  TGI: > 100 µM
[48]
  TGI: > 100 µM
[49]
  TGI: > 100 µM

## CCOC(=O)N1Cc2ccoc2C1
[1]
  TGI: > 100 µM
[3]
  TGI: > 100 µM
[4]
  TGI: > 100 µM
[6]
  TGI: > 100 µM
[7]
  TGI: > 100 µM
[8]
  TGI: > 100 µM
[9]
  TGI: > 100 µM
[10]
  TGI: > 100 µM
[11]
  TGI: > 100 µM
[12]
  TGI: > 100 µM
[13]
  TGI: > 100 µM
[14]
  TGI: > 100 µM
[15]
  TGI: > 100 µM
[16]
  TGI: > 100 µM
[56]
  TGI: > 100 µM
[17]
  TGI: > 100 µM
[18]
  TGI: > 100 µM
[19]
  TGI: > 100 µM
[20]
  TGI: > 100 µM
[21]
  TGI: > 100 µM
[22]
  TGI: > 100 µM
[23]
  TGI: > 100 µM
[24]
  TGI: > 100 µM
[25]
  TGI: > 100 µM
[57]
  TGI: > 100 µM
[26]
  TGI: > 100 µM
[27]
  TGI: > 100 µM
[28]
  TGI: > 100 µM
[29]
  TGI: > 100 µM
[30]
  TGI: > 100 µM
[31]
  TGI: > 100 µM
[32]
  TGI: > 100 µM
[33]
  TGI: > 100 µM
[34]
  TGI: > 100 µM
[35]
  TGI: > 100 µM
[52]
  TGI: > 100 µM
[53]
  TGI: > 100 µM
[54]
  TGI: > 100 µM
[36]
  TGI: > 100 µM
[37]
  TGI: > 100 µM
[38]
  TGI: > 100 µM
[39]
  TGI: > 100 µM
[40]
  TGI: > 100 µM
[41]
  TGI: > 100 µM
[42]
  TGI: > 100 µM
[43]
  TGI: > 100 µM
[44]
  TGI: > 100 µM
[45]
  TGI: > 100 µM
[46]
  TGI: > 100 µM
[47]
  TGI: > 100 µM
[48]
  TGI: > 100 µM
[49]
  TGI: > 100 µM
[50]
  TGI: > 100 µM
[51]
  TGI: > 100 µM
